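The compound was tested at five concentrations on cells cultured in 96-well plates, with a 48-hour exposure period. GI50: concentration for 50% inhibition of growth. The concentration for full growth arrest is given as TGI.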

Some test systems named below: CCRF-CEM leukemia; EKVX NSCLC; LOX IMVI melanoma; NCI-H522 lung; OVCAR-8 ovarian; RPMI-8226 leukemia; SF-539 CNS; SK-MEL-2 melanoma; SK-MEL-28 melanoma; UACC-62 melanoma.
Experiment in all cases: NCI-60 cell line screen, 48 h

On to `CCN(CC)c1ccc(/C=C/c2ccc3cc(C)ccc3[n+]2CC)cc1`, for which the GI50 was 0.299 µM in the assay on CCRF-CEM leukemia; 0.0787 µM in the assay on EKVX NSCLC; 0.0666 µM in the assay on LOX IMVI melanoma; 0.0835 µM in the assay on NCI-H522 lung; 0.107 µM in the assay with OVCAR-8 ovarian; 0.029 µM with RPMI-8226 leukemia. In addition, the GI50 with SF-539 CNS was 0.172 µM; in the assay on SK-MEL-2 melanoma, 0.173 µM; in the assay with SK-MEL-28 melanoma it was 0.279 µM; in the assay on UACC-62 melanoma, 0.152 µM. Also, the TGI with CCRF-CEM leukemia was determined as 29.9 µM; with EKVX NSCLC it was 13.2 µM; in the assay with LOX IMVI melanoma, 1.2 µM; with NCI-H522 lung it was 2.55 µM; in the assay with OVCAR-8 ovarian it was 12.6 µM; in the assay on RPMI-8226 leukemia, 3.66 µM. Moreover, the TGI was 10.9 µM with SF-539 CNS, 0.71 µM with SK-MEL-2 melanoma, 2.19 µM in the assay on SK-MEL-28 melanoma and 1.37 µM in the assay on UACC-62 melanoma.
Take `N#CSc1c[nH]c2cccc(/C=C/C(=O)/C=C(/C=C/c3cccc4[nH]cc(SC#N)c34)OB(F)F)c12`: the GI50 was 0.315 µM in the assay with CCRF-CEM leukemia; 0.916 µM in the assay on EKVX NSCLC; 0.243 µM in the assay on LOX IMVI melanoma; 0.207 µM in the assay with NCI-H522 lung; 0.355 µM with OVCAR-8 ovarian; 0.351 µM in the assay on RPMI-8226 leukemia. Moreover, the GI50 with SF-539 CNS is 1.18 µM; in the assay on SK-MEL-2 melanoma it was 2.4 µM; in the assay with SK-MEL-28 melanoma, 0.342 µM; in the assay with UACC-62 melanoma, 0.628 µM. For the same compound, the TGI in the assay on CCRF-CEM leukemia was 17.6 µM; in the assay on EKVX NSCLC, 5.81 µM; in the assay on LOX IMVI melanoma it was 0.677 µM; with NCI-H522 lung, 0.501 µM; with OVCAR-8 ovarian, over 59.5 µM; in the assay with RPMI-8226 leukemia, 30 µM. For the same compound, the TGI was determined as 4.27 µM with SF-539 CNS, 5.9 µM with SK-MEL-2 melanoma, 1.49 µM in the assay on SK-MEL-28 melanoma and 2.56 µM with UACC-62 melanoma.
In the case of `CC[C@@]1(O)C(=O)OCc2c1cc1n(c2=O)Cc2c-1nc1cc3c(cc1c2CCl)OCO3`, the GI50 in the assay on CCRF-CEM leukemia was under 0.01 µM; in the assay on EKVX NSCLC, 0.994 µM; in the assay on LOX IMVI melanoma it was under 0.01 µM; with NCI-H522 lung it was under 0.01 µM; with OVCAR-8 ovarian, under 0.01 µM; with RPMI-8226 leukemia it was under 0.01 µM. Moreover, the GI50 was under 0.01 µM in the assay on SF-539 CNS, 0.206 µM with SK-MEL-2 melanoma, 2.33 µM with SK-MEL-28 melanoma and under 0.01 µM in the assay with UACC-62 melanoma. Also, the TGI in the assay with EKVX NSCLC was over 44.6 µM; with LOX IMVI melanoma, 0.426 µM; in the assay on NCI-H522 lung, 1.36 µM; in the assay with OVCAR-8 ovarian it was 0.602 µM; in the assay on RPMI-8226 leukemia, 0.309 µM; with SF-539 CNS, under 0.0135 µM. Besides, the TGI came out at 1.22 µM in the assay on SK-MEL-2 melanoma, 18.9 µM in the assay on SK-MEL-28 melanoma and 0.205 µM in the assay with UACC-62 melanoma.
Turning to `C[C@@H]1OC(O)[C@@H](F)[C@H](O)[C@@H]1O` (some centres undefined), the GI50 in the assay with CCRF-CEM leukemia, with EKVX NSCLC, in the assay with LOX IMVI melanoma, with NCI-H522 lung, in the assay on OVCAR-8 ovarian and in the assay with RPMI-8226 leukemia was over 100 µM each time. Further, the GI50 in the assay with SF-539 CNS, in the assay with SK-MEL-2 melanoma, in the assay on SK-MEL-28 melanoma and with UACC-62 melanoma was over 100 µM in each case. The TGI with CCRF-CEM leukemia, in the assay on EKVX NSCLC, in the assay with LOX IMVI melanoma, in the assay with NCI-H522 lung, in the assay with OVCAR-8 ovarian and with RPMI-8226 leukemia was over 100 µM throughout. For the same compound, the TGI in the assay with SF-539 CNS, in the assay on SK-MEL-2 melanoma, with SK-MEL-28 melanoma and in the assay with UACC-62 melanoma was over 100 µM in each case.
Regarding `N#Cc1ccc(NC(=O)Nc2ccc(Oc3ccc(NC(=O)Nc4ccc(C#N)cc4)cc3)cc2)cc1`, the GI50 is 22.1 µM in the assay with CCRF-CEM leukemia; 10.3 µM with EKVX NSCLC; 15.7 µM in the assay on LOX IMVI melanoma; 10.9 µM in the assay on NCI-H522 lung; 14.4 µM with OVCAR-8 ovarian; 0.994 µM in the assay with RPMI-8226 leukemia. Also, the GI50 is 17.6 µM in the assay with SF-539 CNS, 22.4 µM in the assay with SK-MEL-2 melanoma, 79.2 µM in the assay with SK-MEL-28 melanoma and 11.1 µM in the assay on UACC-62 melanoma. The TGI in the assay with CCRF-CEM leukemia is over 100 µM; in the assay on EKVX NSCLC it was over 100 µM; with LOX IMVI melanoma, over 100 µM; with NCI-H522 lung, 95.5 µM; in the assay with OVCAR-8 ovarian, over 100 µM; with RPMI-8226 leukemia, 39.6 µM. Besides, the TGI in the assay on SF-539 CNS is 59.4 µM; in the assay with SK-MEL-2 melanoma, 88.9 µM; in the assay on SK-MEL-28 melanoma, over 100 µM; in the assay with UACC-62 melanoma, over 100 µM.
For the compound `O=c1c2cc([N+](=O)[O-])ccc2sc2ccsc12`, the TGI in the assay with CCRF-CEM leukemia, with EKVX NSCLC, in the assay with LOX IMVI melanoma, in the assay with NCI-H522 lung, in the assay on OVCAR-8 ovarian and with RPMI-8226 leukemia was over 100 µM throughout. The TGI in the assay on SF-539 CNS, with SK-MEL-2 melanoma, in the assay with SK-MEL-28 melanoma and with UACC-62 melanoma was over 100 µM each time.
`COc1ccc(/C=C/c2nccc3ccccc23)cc1OC`: the TGI in the assay with CCRF-CEM leukemia, with EKVX NSCLC, in the assay with LOX IMVI melanoma, in the assay on NCI-H522 lung, in the assay with OVCAR-8 ovarian and in the assay on RPMI-8226 leukemia was over 10 µM each time. Also, the TGI in the assay with SF-539 CNS, with SK-MEL-2 melanoma, in the assay on SK-MEL-28 melanoma and with UACC-62 melanoma was over 10 µM throughout.
Take `O=C1CCCCN1CCCCC#Cc1ccccc1C#Cc1ccc([N+](=O)[O-])cc1`: the GI50 in the assay on CCRF-CEM leukemia was 2.87 µM; in the assay on EKVX NSCLC, 5.26 µM; with LOX IMVI melanoma it was 2.79 µM; in the assay with NCI-H522 lung, 12.3 µM; in the assay with OVCAR-8 ovarian it was 2.81 µM; with RPMI-8226 leukemia, 0.408 µM. The GI50 with SF-539 CNS was 3.13 µM; with SK-MEL-2 melanoma, 3.65 µM; in the assay on SK-MEL-28 melanoma, 10.5 µM; in the assay on UACC-62 melanoma it was 5.77 µM. Further, the TGI with CCRF-CEM leukemia is 18.2 µM; in the assay with EKVX NSCLC, 40 µM; in the assay with LOX IMVI melanoma, 8.87 µM; in the assay on NCI-H522 lung, 59.5 µM; in the assay on OVCAR-8 ovarian, 9.13 µM; in the assay with RPMI-8226 leukemia it was 3.39 µM. In addition, the TGI was 12.7 µM with SF-539 CNS, 16.7 µM in the assay on SK-MEL-2 melanoma, 22.4 µM with SK-MEL-28 melanoma and 20.3 µM in the assay on UACC-62 melanoma.
For `O=C1CCC2(c3ccc(F)cc3)Nc3cc(Cl)ccc3N12` (centres undefined), the TGI with CCRF-CEM leukemia, in the assay on EKVX NSCLC, with LOX IMVI melanoma, with NCI-H522 lung, in the assay on OVCAR-8 ovarian and in the assay with RPMI-8226 leukemia was over 100 µM each time. Also, the TGI in the assay with SF-539 CNS, in the assay with SK-MEL-2 melanoma, in the assay on SK-MEL-28 melanoma and in the assay on UACC-62 melanoma was over 100 µM in each case.
Take `O=C1c2cc(Cl)ccc2S(=O)(=O)c2c(NCCCNCCO)nc3ccccc3c21`: the GI50 in the assay on CCRF-CEM leukemia is 0.648 µM; in the assay on EKVX NSCLC it was 1.66 µM; in the assay on LOX IMVI melanoma, 1.58 µM; with NCI-H522 lung it was 0.323 µM; with OVCAR-8 ovarian, 1.86 µM; with RPMI-8226 leukemia, 0.888 µM. In addition, the GI50 was 1.6 µM with SF-539 CNS, 1.93 µM in the assay on SK-MEL-2 melanoma, 1.76 µM with SK-MEL-28 melanoma and 1.61 µM in the assay on UACC-62 melanoma. Further, the TGI with CCRF-CEM leukemia stood at 2.74 µM; in the assay with EKVX NSCLC, 4.83 µM; with LOX IMVI melanoma, 2.95 µM; in the assay with NCI-H522 lung it was 1.42 µM; in the assay with OVCAR-8 ovarian, 4.53 µM; in the assay on RPMI-8226 leukemia, 3.28 µM. For the same compound, the TGI turned out to be 3.13 µM with SF-539 CNS, 4.74 µM in the assay with SK-MEL-2 melanoma, 3.39 µM in the assay with SK-MEL-28 melanoma and 3.35 µM in the assay with UACC-62 melanoma.
`COc1ccc(/C(COc2c(-c3ccccc3)oc3ccccc3c2=O)=N\O)cc1`: the GI50 is 37 µM with CCRF-CEM leukemia; 14.2 µM in the assay on EKVX NSCLC; 12.4 µM in the assay with LOX IMVI melanoma; 11.1 µM with NCI-H522 lung; 47.6 µM in the assay on OVCAR-8 ovarian; 21.5 µM in the assay on RPMI-8226 leukemia. The GI50 with SF-539 CNS was 13.5 µM; with SK-MEL-2 melanoma, 9.82 µM; in the assay on SK-MEL-28 melanoma, 15 µM; with UACC-62 melanoma, 12.7 µM. The TGI is over 50 µM in the assay on CCRF-CEM leukemia; over 50 µM with EKVX NSCLC; 26.5 µM with LOX IMVI melanoma; 28.5 µM in the assay on NCI-H522 lung; over 50 µM in the assay on OVCAR-8 ovarian; over 50 µM with RPMI-8226 leukemia. Also, the TGI with SF-539 CNS was 27.9 µM; with SK-MEL-2 melanoma it was 45.5 µM; with SK-MEL-28 melanoma, over 50 µM; in the assay on UACC-62 melanoma it was 43.5 µM.
`O=C(/C=C/c1c(O)ccc2ccccc12)c1cccc(O)c1`: the TGI is over 100 µM in the assay with CCRF-CEM leukemia; over 100 µM in the assay on EKVX NSCLC; over 72.1 µM in the assay on LOX IMVI melanoma; over 100 µM in the assay with NCI-H522 lung; over 100 µM in the assay on OVCAR-8 ovarian; over 100 µM in the assay on RPMI-8226 leukemia. Besides, the TGI with SF-539 CNS was over 100 µM; in the assay with SK-MEL-2 melanoma, over 100 µM; in the assay with SK-MEL-28 melanoma it was over 100 µM; in the assay with UACC-62 melanoma, 69.1 µM.

For the origin of these results see PubChem BioAssay (NCI).
